Test results reported in patent US10927067B2, “Organic crystalline salt of haloacetic acid” (priority 2016, dated 2021).

Assays:
MCF7 cells = assay: zebrafish xenotransplantation tumor model (zebrafish model of hepatocarcinoma), oral dosing with feed for 14 days; type: in vivo
Description: The study was carried out in group sizes of 6 adult fish. Fish were induced with tumor through xenotransplantation of log phase cells. Groups were treated with compounds through oral dosing and treated groups were compared to vehicle treated, to quantify activity against tumor.
Fishes were anesthetized using cold water of 15° C. and 3 ul of 1×10^6 log phase MCF7 cells were injected into the peritoneum to induce tumor. Fish were transferred to housing tanks and maintained for 21 days until tumor reached maximum growth phase.
The stock compound is prepared by dissolving appropriate amount of compound in 1 ml of Phosphate Buffered Saline (PBS—8 g of NaCl, 0.2 g of KCl, 1.44 g of Na2HPO4 and 0.24 g of KH2PO4 is made to 1 litre and pH adjusted to 7.4.) containing 20% DMSO and 30% fish feed grade coconut oil and stored at 4° C. until use.
Fishes were dosed by mixing the compound with feed for 14 days. A per day dosing weight of compound was dissolved in 3 ul of compound dissolving medium and added to a pellet. The pellets were dried at 70 degrees to remove moisture prior to adding compound and post addition and absorption of compound the pellets were transferred to 4° C.
Statistical comparisons were made using GraphPad. Student's t test with a 95% confidence interval was performed using a two-way ANOVA at an alpha=0.05 (95% confidence interval). Significance is denoted with asterisks: ns not significant, *P<0.05, **P<0.01, ***P<0.001, ****P<0.0001.

[1] = DSC, FIG. 5
Description: DSC measurements were carried out using STA 6000 (Simultaneous Thermal Analyzer TG with DSC/DTA).
TGA measurements were carried out using STA 6000 (Simultaneous Thermal Analyzer TG with DSC/DTA).

[2] = crystals from 95% ethanol, Example 3
Description: Mixture of dichloroacetic acid (V) (1.28 g, 1.2894 mmol) and tromethamine (DI) (1.2 g) are dissolved in 10 ml of 95% ethanol.

[3] = 5 mM concentration, 14 days treatment, FIG. 8

O=C([O-])C(Cl)Cl.[Na+] [Formula (VI), sodium dichloroacetate, reference compound]
mortality (MCF7 cells; 1 mM concentration, FIG. 7): 70%
relative neovascularization reversal (MCF7 cells; 1 mM concentration, FIG. 7): 60%
tumor reversal (MCF7 cells; 1 mM concentration, FIG. 7): 40%
mortality (MCF7 cells; [3]): 90%
neovascularization reversal (MCF7 cells; 5 mM concentration, FIG. 8): 70%
relative tumor reversal (MCF7 cells; 5 mM concentration, FIG. 8): 50%

dichloroacetate tromethamine [Formula (VII)]
thermally stable upto [1]: ≤ 150 °C
water solubility [2]: water soluble
mortality (MCF7 cells; 1 mM concentration, FIG. 7): No mortality
relative neovascularization reversal (MCF7 cells; 1 mM concentration, FIG. 7): ≤ 90%
tumor reversal (MCF7 cells; 1 mM concentration, FIG. 7): ≤ 60%
mortality (MCF7 cells; [3]): No mortality
neovascularization reversal (MCF7 cells; 5 mM concentration, FIG. 8): complete
relative tumor reversal (MCF7 cells; 5 mM concentration, FIG. 8): up to 90%
